The record followed here is ChEMBL document CHEMBL1150995, “DNA cleavage by photoexcited diazoarenes” (Bioorg Med Chem Lett, 1997).

Structures are written as SMILES.

Assay [1] is described as follows: Inhibitory effect of DMSO (0.2 M) on light induced nuclease activity was determined.
Assay [2] is described as follows: Inhibitory effect of D2O on light induced nuclease activity was determined. To be noted: concentration not given here.
The nature of assay [3]: Inhibitory effect of cumene (100 uM) on light induced nuclease activity was determined.
Assay [4] is described as follows: Inhibitory effect of DABCO (0.2 M) on light induced nuclease activity was determined.
Assay [5] can be described thus: Inhibitory effect of 2-Propanol (100 uM) on light induced nuclease activity was determined.
A short description of assay [6]: Inhibitory effect of SOD (100 ng) on light induced nuclease activity was determined.
Assay [7] is described as follows: Inhibitory effect of Mannitol (100 mM) on light induced nuclease activity was determined.
A short description of assay [8]: Inhibitory effect of triphenylphosphine (100 uM) on light induced nuclease activity was determined.

`[N-]=[N+]=C1c2ccccc2C(=O)c2ccccc21`: the inhibition in assay [1] was 12%; in assay [2], 10%; in assay [3], 39%; in assay [4], 30%; in assay [5], 25%; in assay [6] it was 10%. For the same compound, the inhibition in assay [7] turned out to be 5%; in assay [8], 35%.

Take `[N-]=[N+]=c1c2ccccc2oc2ccccc12`: the inhibition in assay [1] turned out to be 5%; in assay [2] it was 8%; in assay [3] it was 58%; in assay [4], 38%; in assay [5], 30%; in assay [6] it was 8%. For the same compound, the inhibition in assay [7] came to 3%; in assay [8], 35%.
